This is an account of results in patent US20230151069A1, “Cyclic Peptides” (LIFEARC, priority 2020, published 2023).

Holding throughout (assay type): in vivo, mouse
The subject of series [1] is Tg4-42 mice. Briefly: Spatial reference memory by Morris water maze in Tg4-42 mice. As to conditions: aged Tg4-42 mice, FIG. 31A. On the procedure:
Tg4-42 mice were immunized at 6 weeks of age for 12 weeks with antigen [Thioacetal bridged Abeta peptide 1-14—KLH conjugate; DAC*[…]*HH[Cys]-amide (*S—CH—S bridged)] emulsified in complete Freund's adjuvant (CFA), followed by booster doses of protein emulsified in incomplete Freund's adjuvant (IFA). Booster injections of antigen emulsified in IFA was administered at day 14, day 28, day 42, thereafter monthly (3 times after month 4, 5 and 6), after immunization with antigen/CFA emulsion. Mice were acclimated at our facility for at least 7 days before immunization. Mice were injected with antigen emulsified in CFA or IFA subcutaneously at two sites on the back, injecting 0.05 to 0.1 mL at each site (total of 0.1 to 0.2 mL per mouse). […]
Spatial reference memory in mice was evaluated using the Morris water maze (R. Morris, Developments of a water-maze procedure for studying spatial learning in the rat. J. Neurosci. Methods 11, 47-60 (1984)) as described previously (Y. Bouter et al., N-truncated amyloid beta (Abeta) 4-42 forms stable aggregates and induces acute and long-lasting behavioral deficits. Acta Neuropathol 126, 189-205 (2013)).
(§1) The treatment effect of active immunization was assessed in 6.5 month old Tg4-42 mice on hippocampus-dependent learning and memory by the Morris water maze test (FIG. 31A) and by counting the total number of CA1 neurons in the hippocampus (FIG. 31B). […]

The test system of another series is 5XFAD mice. The experiment in a line: Active immunisation, 18F-Florbetaben-PET/MRI amyloid-plaque imaging in 5XFAD mice. As to conditions: immunized 5XFAD mice, cortex, hippocampus and amygdala. The procedure:
5XFAD mice were immunized at 6 weeks of age for 12 weeks with antigen [Thioacetal bridged amyloid-beta peptide 1-14—KLH conjugate; DAC*[…]*HH[Cys]-amide (*S—CH—S bridged, cyclised via positions 3 and 12)] emulsified in complete Freund's adjuvant (CFA), followed by booster doses of protein emulsified in incomplete Freund's adjuvant (IFA). Mice were acclimated at our facility for at least 7 days before immunization. Mice were injected with antigen emulsified in CFA subcutaneously at two sites on the back, injecting 0.05 to 0.1 mL at each site (total of 0.1 to 0.2 mL per mouse).
Booster injections of antigen emulsified in IFA was administered at day 14, day 28, day 42 and 10 weeks after immunization with antigen/CFA emulsion. The booster is given as a single subcutaneous injection with 0.1 mL of IFA emulsion, at one site on the back. […]
All images were analyzed using PMOD v3.9 (PMOD Technologies, Switzerland) as described before (Bouter et al). […] PET VOI statistics (kBq/cc) were generated for all brain areas and standardized uptake values (SUVs) were calculated [SUV=tissue activity concentration average (kBq/cc)×body weight (g)/injected dose (kBq)] for semi-quantitative analysis. SUVs of 18F-FDG-PET scans were corrected for measured blood glucose levels [SUVGIc=SUV x blood glucose level (mg/dl)]. […]

Series [2] has as its system Tg4-42 mice. Briefly: Quantification of CA1 neuron numbers by unbiased stereology in Tg4-42 mice. As to conditions: aged Tg4-42 mice. The procedure: Tg4-42 mice were immunized at 6 weeks of age for 12 weeks with antigen [Thioacetal bridged Abeta peptide 1-14—KLH conjugate; DAC*[…]*HH[Cys]-amide (*S—CH—S bridged)] emulsified in complete Freund's adjuvant (CFA), followed by booster doses of protein emulsified in incomplete Freund's adjuvant (IFA). Booster injections of antigen emulsified in IFA was administered at day 14, day 28, day 42, thereafter monthly (3 times after month 4, 5 and 6), after immunization with antigen/CFA emulsion. Mice were acclimated at our facility for at least 7 days before immunization. […]
Stereological analysis was performed as previously described (G. Antonios et al., Alzheimer therapy with an antibody against N-terminal Abeta 4-X and pyroglutamate Abeta 3-X. Scientific reports 5, 17338 (2015)). The hippocampal cell layer CA1 (Bregma −1.22 to −3.52 mm) was delineated on cresyl violet-stained sections and analysed with a stereology workstation (Olympus BX51 with a motorized specimen stage for automatic sampling), StereoInvestigator 7 (MicroBrightField, Williston, USA) and a 100x oil lens (NA=1.35).
as §1

With “DAC*FRHDSGYEC*HH[Cys]-amide (*S—CH—S bridged, cyclised via positions 3 and 12)”, the “learning and memory deficits, Morris water maze probe trial” value in the series on Tg4-42 mice [1] (listed as 3-12 linked A61-14 cyclic peptide) was “substantial rescue of learning and memory deficits”; in the series on Tg4-42 mice [1] (listed as cylised Aβ peptide), “rescued memory deficits”. Further, the “amyloid-plaque signal (fluorbetaben retention)” value in the series on 5XFAD mice is listed as “drastically reduced”. For the same substance, the “loss / number of CA1 neurons (in words)” value in the series with Tg4-42 mice [2] (FIG. 31B) is “significantly reduced loss of neurons”. The “mean number (+SEM) of neurons in CA1 layer of hippocampus” value in the series with Tg4-42 mice [2] (IgG1 treated control 128687+13035) is 185858+39180.
